Reference: patent US8758816B2, “Compositions comprising azelastine and methods of use thereof” (priority 2004, dated 2014)
Structures can show the parent of a compound that is named as a salt.

Test system: patients with seasonal allergic rhinitis (SAR)
Assay: MP 428 two-week randomized double-blind study: Total Nasal Symptom Score (TNSS), change from baseline
Type: in vivo, human
Set-up: key to Change from Baseline in AM TNSS, Mean / Change from Baseline in AM TNSS, LS Mean / Change from Baseline in AM TNSS, Median: TNSS sum of 4 symptoms each 0-3 (0=none, 3=severe); change from baseline
Description: A two-week, randomized, double-blind study, which evaluated the effects of the co-administration of ASTELIN® (azelastine hydrochloride (HCl)) and FLONASE® (fluticasone propionate) compared to either product alone in patients with seasonal allergic rhinitis (SAR) was conducted during the 2006 Texas mountain cedar season. After a 5-day placebo lead-in period, 151 patients with moderate-to-severe allergic rhinitis symptoms were randomized to either: (1) (49 total patients) ASTELIN® (azelastine hydrochloride (HCl)) plus placebo saline nasal spray 2 sprays per nostril, 15 minutes apart, twice daily (AM & PM); (2) (50 total patients) FLONASE® (fluticasone propionate) plus placebo saline nasal spray, 2 sprays per nostril, 15 minutes apart, once daily (AM) and two sessions of placebo saline nasal spray, 2 sprays per nostril, 15 minutes apart (PM); or (3) (52 total patients) the co-administration of ASTELIN® (azelastine hydrochloride (HCl)) 2 sprays per nostril plus FLONASE® (fluticasone propionate) 2 sprays per nostril (AM), 15 minutes apart, and ASTELIN® (azelastine hydrochloride (HCl)) 2 sprays per nostril plus placebo saline nasal spray, 15 minutes apart, (PM) for a 2-week double-blind treatment period.
The primary efficacy variable was the change from baseline in the Total Nasal Symptom Score (TNSS), which comprised sneezing, itchy nose, runny nose, and nasal congestion (individual symptoms scores were assigned a value between 0 and 3, where 0=no symptoms and 3=severe symptoms). This study was not statistically designed to assess the differences between ASTELIN® and FLONASE®.

[1] = Day 5, Intent-to-Treat Population
[2] = Day 6, Intent-to-Treat Population
[3] = Day 7, Intent-to-Treat Population
[4] = Day 8, Intent-to-Treat Population
[5] = Day 9, Intent-to-Treat Population

## CN1CCCC(n2nc(Cc3ccc(Cl)cc3)c3ccccc3c2=O)CC1 (racemic) [Azelastine, (±)-1-(2H)-phthalazinone, 4-[(4-chlorophenyl)methyl]-2-(hexahydro-1-methyl-1H-azepin-4-yl)-, mono-hydrochloride]
[1]
  Percent Change from Baseline in AM and PM Combined TNSS, Mean: −23.15%
  Percent Change from Baseline in AM and PM Combined TNSS, Median: −18.64%
  Percent Change from Baseline in PM TNSS, LS Mean: −22.87%
  Percent Change from Baseline in PM TNSS, Mean: −22.50%
  Percent Change from Baseline in PM TNSS, Median: −13.04%
Day 5, Intent-to-Treat Population, ANCOVA model
  Change from Baseline in AM and PM Combined TNSS, LS Mean: −4.46
Day 5, Per-Protocol Population
  Change from Baseline in AM and PM Combined TNSS, LS Mean: −4.43
  Change from Baseline in AM and PM Combined TNSS, Mean: −4.48
  Change from Baseline in AM and PM Combined TNSS, Median: −3.67
  Percent Change from Baseline in AM and PM Combined TNSS, LS Mean: −23.17%
  Percent Change from Baseline in AM and PM Combined TNSS, Mean: −23.15%
  Percent Change from Baseline in AM and PM Combined TNSS, Median: −18.64%
[2]
  Change from Baseline in AM TNSS, LS Mean: −2.01
  Change from Baseline in AM TNSS, Mean: −2.01
  Change from Baseline in AM TNSS, Median: −2.00
  Change from Baseline in AM and PM Combined TNSS, Mean: −4.44
  Change from Baseline in AM and PM Combined TNSS, Median: −3.70
  Change from Baseline in PM TNSS, LS Mean: −2.38
  Change from Baseline in PM TNSS, Mean: −2.43
  Change from Baseline in PM TNSS, Median: −2.00
  Percent Change from Baseline in AM TNSS, LS Mean: −21.14%
  Percent Change from Baseline in AM TNSS, Mean: −21.35%
  Percent Change from Baseline in AM TNSS, Median: −16.67%
  Percent Change from Baseline in AM and PM Combined TNSS, LS Mean: −23.15%
  Percent Change from Baseline in AM and PM Combined TNSS, Mean: −23.13%
  Percent Change from Baseline in AM and PM Combined TNSS, Median: −18.78%
  Percent Change from Baseline in PM TNSS, LS Mean: −25.18%
  Percent Change from Baseline in PM TNSS, Mean: −24.82%
  Percent Change from Baseline in PM TNSS, Median: −20.45%
Day 6, Intent-to-Treat Population, ANCOVA model
  Change from Baseline in AM and PM Combined TNSS, LS Mean: −4.40
Day 6, Per-Protocol Population
  Change from Baseline in AM and PM Combined TNSS, LS Mean: −4.38
  Change from Baseline in AM and PM Combined TNSS, Mean: −4.44
  Change from Baseline in AM and PM Combined TNSS, Median: −3.70
  Percent Change from Baseline in AM and PM Combined TNSS, LS Mean: −23.16%
  Percent Change from Baseline in AM and PM Combined TNSS, Mean: −23.13%
  Percent Change from Baseline in AM and PM Combined TNSS, Median: −18.78%
[3]
  Change from Baseline in AM TNSS, LS Mean: −2.52
  Change from Baseline in AM TNSS, Mean: −2.52
  Change from Baseline in AM TNSS, Median: −2.20
  Change from Baseline in AM and PM Combined TNSS, Mean: −5.09
  Change from Baseline in AM and PM Combined TNSS, Median: −4.67
  Change from Baseline in PM TNSS, LS Mean: −2.54
  Change from Baseline in PM TNSS, Mean: −2.57
  Change from Baseline in PM TNSS, Median: −2.25
  Percent Change from Baseline in AM TNSS, LS Mean: −26.26%
  Percent Change from Baseline in AM TNSS, Mean: −26.58%
  Percent Change from Baseline in AM TNSS, Median: −25.00%
  Percent Change from Baseline in AM and PM Combined TNSS, LS Mean: −26.40%
  Percent Change from Baseline in AM and PM Combined TNSS, Mean: −26.52%
  Percent Change from Baseline in AM and PM Combined TNSS, Median: −23.31%
  Percent Change from Baseline in PM TNSS, LS Mean: −26.39%
  Percent Change from Baseline in PM TNSS, Mean: −26.20%
  Percent Change from Baseline in PM TNSS, Median: −23.81%
Day 7, Intent-to-Treat Population, ANCOVA model
  Change from Baseline in AM and PM Combined TNSS, LS Mean: −5.05
Day 7, Per-Protocol Population
  Change from Baseline in AM and PM Combined TNSS, LS Mean: −5.01
  Change from Baseline in AM and PM Combined TNSS, Mean: −5.09
  Change from Baseline in AM and PM Combined TNSS, Median: −4.67
  Percent Change from Baseline in AM and PM Combined TNSS, LS Mean: −26.32%
  Percent Change from Baseline in AM and PM Combined TNSS, Mean: −26.52%
  Percent Change from Baseline in AM and PM Combined TNSS, Median: −23.31%
[4]
  Change from Baseline in AM TNSS, LS Mean: −2.65
  Change from Baseline in AM TNSS, Mean: −2.62
  Change from Baseline in AM TNSS, Median: −2.50
  Change from Baseline in AM and PM Combined TNSS, Mean: −5.38
  Change from Baseline in AM and PM Combined TNSS, Median: −5.00
  Change from Baseline in PM TNSS, LS Mean: −2.69
  Change from Baseline in PM TNSS, Mean: −2.76
  Change from Baseline in PM TNSS, Median: −2.75
  Percent Change from Baseline in AM TNSS, LS Mean: −27.73%
  Percent Change from Baseline in AM TNSS, Mean: −27.83%
  Percent Change from Baseline in AM TNSS, Median: −25.00%
  Percent Change from Baseline in AM and PM Combined TNSS, LS Mean: −28.22%
  Percent Change from Baseline in AM and PM Combined TNSS, Mean: −28.13%
  Percent Change from Baseline in AM and PM Combined TNSS, Median: −23.73%
  Percent Change from Baseline in PM TNSS, LS Mean: −27.94%
  Percent Change from Baseline in PM TNSS, Mean: −28.17%
  Percent Change from Baseline in PM TNSS, Median: −27.27%
Day 8, Intent-to-Treat Population, ANCOVA model
  Change from Baseline in AM and PM Combined TNSS, LS Mean: −5.37
Day 8, Per-Protocol Population
  Change from Baseline in AM and PM Combined TNSS, LS Mean: −5.33
  Change from Baseline in AM and PM Combined TNSS, Mean: −5.38
  Change from Baseline in AM and PM Combined TNSS, Median: −5.00
  Percent Change from Baseline in AM and PM Combined TNSS, LS Mean: −28.14%
  Percent Change from Baseline in AM and PM Combined TNSS, Mean: −28.13%
  Percent Change from Baseline in AM and PM Combined TNSS, Median: −23.73%
[5]
  Change from Baseline in AM TNSS, LS Mean: −2.57
  Change from Baseline in AM TNSS, Mean: −2.52
